Laboratory results reported in article PMC3073677 (Journal of molecular graphics & modelling, 2010).
Like-named read-outs stand apart in the source and are kept apart here. Each block holds one molecule with its values, some of them ahead of it.

Columns and labels:
human DHFR = biological target: T1, human DHFR (Homo sapiens, UniProt P00374); test: Human DHFR enzyme inhibition assay; assay type: biochemical
T1 sequence (P00374 1-187): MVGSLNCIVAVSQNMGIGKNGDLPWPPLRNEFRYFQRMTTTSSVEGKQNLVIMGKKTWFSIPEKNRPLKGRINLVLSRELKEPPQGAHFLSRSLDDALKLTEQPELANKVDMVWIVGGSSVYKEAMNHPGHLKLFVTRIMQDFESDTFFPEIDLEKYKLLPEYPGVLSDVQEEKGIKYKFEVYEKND

DHFR = conditions: cited from earlier work

IC50 (human DHFR): < 100 nM
Molecule: CCc1nc(N)nc(N)c1C#CCc1cc(OC)c(OC)c(OC)c1 [Compound 35, 2,4-diamino-5-(3-(3,4,5-trimethoxyphenyl)prop-1-ynyl)-6-ethylpyrimidine]

Molecule: N-α-(4-amino-4-deoxypteroyl)-N δ-hemiphthaloyl-L-ornithine [PT523]
IC50 (DHFR; classical inhibitors): 12.2 nM
